Assay results taken from patent US5817840A, “Water soluble taxol derivatives” (The Scripps Research Institute, priority 1997, dated 1998).
Entries after “also recorded” stand apart in the source; their conditions may differ.

Key:
H322 (lung carcinoma) = experiment: Cytotoxicity (sulphorhodamine B), cancer cell line, Table 1B; assay type: cell-based; conditions: NCI-H322, 72 h
Description: (§1) The cytotoxicities were determined using the sulphorhodamine B assay method (Skehan, P. et al. J. Nat. Canc. Inst. 82, 1107 (1990)).

HT-29 (colon carcinoma) = experiment: as above; assay type: cell-based; conditions: Homo sapiens, HT-29, 72 h
Description: as §1

[1] = Taxol release in human blood plasma at 37° C.; assay type: in vitro ADME
Description: Protaxol 5 and N-cyclohexylbenzamide (as internal standard) were dissolved in acetonitrile and immediatley added to human plasma or phosphate buffer at pH 7.4. Samples-of protaxol 5 were incubated in each medium for specified times and then extracted with ethyl acetate as described by S. M. Longnecker, et al., Cancer Treat. Rep. 71, 53 (1987). Solvent was removed and the residue dissolved in acetonitrile and analysed by HPLC as already described. The peak areas for compound 5 and taxol were normalized to that of the internal standard using a calibration curve.

[2] = test system: UCLA-P-3 (lung carcinoma); experiment: Cytotoxicity (sulphorhodamine B), cancer cell line, Table 1B; assay type: cell-based; conditions: Homo sapiens, UCLA P-3, 72 h
Description: as §1

[3] = test system: CHO (Chinese hamster ovary); experiment: Cytotoxicity (sulphorhodamine B), normal cell line, Table 1B; assay type: cell-based; conditions: Cricetulus griseus, 72 h
Description: as §1

[4] = test system: PC-3 (prostate carcinoma); experiment: Cytotoxicity (sulphorhodamine B), cancer cell line, Table 1B; assay type: cell-based; conditions: Homo sapiens, 72 h
Description: as §1

NHDF (normal human skin) = experiment: Cytotoxicity (sulphorhodamine B), normal cell line, Table 1B; assay type: cell-based; conditions: 72 h
Description: as §1

SK (melanoma) = experiment: Cytotoxicity (sulphorhodamine B), cancer cell line, Table 1B; assay type: cell-based; conditions: 72 h
Description: as §1

tubulin / microtubules = experiment: Tubulin polymerization-depolymerization (CaCl2-induced depolymerization of microtubules); assay type: biochemical; conditions: 10^-6 M, 1.0 mg/mL tubulin
Description: Tubulin polymerization to microtubules is promoted by GTP, whereas CaCl2 causes depolymerization of microtubules back to tubulin (FIG. 3A). […] The designed protaxol 5 was tested for its ability to stabilize microtubules formed from tubulin via the action of GTP. […] These findings are in agreement with the previously reported loss of activity resulting from blocking the C-2' hydroxyl group.
Tubulin polynerization-depolymerization experiments with taxol and designed protaxol 5 are illustrated in FIG. 3. CaCl2 -promoted depolymerization of microtubules was suppressed by taxol and protaxol 5 (after taxol release).
These measurements may be conducted at 37° C. following a recently developed procedure described by R. Merlock and W. Wrasidlo (Analytical Biochemistry, 1993). In each case 1.0 mM GTP may be employed to promote initial polymerization of tubulin.
D: Tubulin (1.0 mg/mL) with protaxol 5 (10^-6 M) after release of taxol (as determined by HPLC, essentially quantitative conversion).

[5] = test system: OVCAR-3 (ovarian carcinoma); experiment: Cytotoxicity (sulphorhodamine B), cancer cell line, Table 1B; assay type: cell-based; conditions: Homo sapiens, OVCAR-3, 72 h
Description: as §1

For `CC(=O)O[C@H]1C(=O)[C@@]2(C)[C@H]([C@H](OC(=O)c3ccccc3)[C@]3(O)C[C@H](OC(=O)[C@H](OC(=O)CS(=O)(=O)CC(=O)O)[C@@H](NC(=O)c4ccccc4)c4ccccc4)C(C)=C1C3(C)C)[C@]1(OC(C)=O)CO[C@@H]1C[C@@H]2O` [Compound 5], the IC50 (H322 (lung carcinoma)) was 0.001 µM, the IC50 (HT-29 (colon carcinoma)) was under 0.001 µM and the “taxol release in human blood plasma (in words)” value ([1]; compared to pH 7.4 buffer) was “accelerated release of taxol; also recorded: rapidly releasing taxol”. For the same compound, the half-life ([1]; human blood plasma) was about 1.67 h, the IC50 [2] was under 0.001 µM and the IC50 [3] was 100 µM. The IC50 [4] was 1 µM, the IC50 (NHDF (normal human skin)) was 1 µM and the IC50 (SK (melanoma)) was 10 µM. The “prevention of CaCl2-induced depolymerization of microtubules” value (tubulin / microtubules; CaCl2 0.25 mM after 16 minutes, 37° C., initial, no prior release) was “failed to prevent CaCl2-induced disassembly of microtubules; also recorded: caused depolymerization of microtubules”, the “prevention of CaCl2-induced depolymerization of microtubules after taxol release” value (tubulin / microtubules; after prolonged exposure / release of taxol) was “reached potencies comparable to that of taxol; also recorded: suppressed” and the IC50 [5] was under 0.001 µM.
